Paper PMC5756575, “In Vitro Biotransformation, Safety, and Chemopreventive Action of Novel 8-Methoxy-Purine-2,6-Dione Derivatives” (Applied Biochemistry and Biotechnology, 2017)
Read-outs that look alike come from different tables or passages of the source.

Key:
[1] = DPPH radical scavenging assay; format: biochemical; conditions: DPPH 250 μM, compound at 250 μM, 30 min, 517 nm
Experimental: The capacity of selected 8-methoxy-purine-2,6-dione derivatives to scavenge stable free radical DPPH was assessed. A blank and a triplicate of 10 different concentrations of each compound or of each positive control (gallic and ascorbic acids) were evaluated in the experiment. Aforesaid concentrations of compounds were obtained by dilution from a 1000 μM stock solution in methanol. One hundred microliters of DPPH stock solution were added to each well; later, 100 μL of the corresponding compound dilution were added. Consequently, the final concentration of DPPH radical was 250 μM, whereas the final concentrations of the tested compounds or positive controls were 500, 375, 250, 125, 62.5, 50, 37.5, 25, 12.5, and 6.25 μM. Afterwards, the 96-plate was wrapped with aluminum and stored in the dark 30 min prior to the spectrophotometric measurement at a 517-nm wavelength. The obtained absorbances were used to calculate the percentage of radical scavenged by the action of a compound or of a positive control at each concentration using a formula 100 × (A 0 − A m)/A 0. In this equation A m is the average absorbance of the three triplicates measured at the corresponding concentration and A 0 is the average absorbance of DPPH radical in the absence of the tested substance. Knowing inhibition data at the different concentrations, IC50 was calculated when applicable.

[2] = Microsomal stability assay; format: in vitro ADME, rat; conditions: pH 7.4, rat liver microsomes, 20 μM, 0.4 mg/mL protein
Experimental: Compounds 1 and 3 were studied in a biotransformation assay using rat liver microsomes following procedures described previously. The reagents used in this assay were levallorphan (internal standard) and NADPH-regenerating system, which contained phosphate buffer (pH 7.4), NADP^+, glucose-6-phosphate, and glucose-6-phosphate dehydrogenase. The final protein concentration in the assay was 0.4 mg/mL. Compounds 1 and 3 were tested at a final concentration of 20 μM.
The amount of a parental compound remaining in a solution after biotransformation was monitored using LC-MS/MS as described previously in “Cunninghamella Biotransformation Assay.” Graphs representing ln of percentage of parent compound remaining versus incubation time were drawn to calculate in vitro half-time (t1/2) from the slope of linear regression. To obtain intrinsic clearance (Clint) of a tested compound in rat liver microsomal assay, t1/2 previously calculated was substituted at the equation Clint = [(Vmic/Pmic) × 0.693/t1/2], being Vmic and Pmic the volume of incubation in microliters and the amount of incubated protein in milligrams, respectively.
Agilent 1100 HPLC system (Agilent Technologies, Waldbronn, Germany) equipped with a Xbridge™ C18 analytical column (2.1 × 30 mm, […]; Waters, Dublin, Ireland) was used in the chromatographic separation of LC-MS/MS analysis. An elution gradient of acetonitrile and water, with 0.1% of formic acid, was used as a mobile phase. MS spectra were taken at Applied Biosystems MDS Sciex API 200 triple quadrupole mass analyzer (Concord, Ontario, Canada) with an electrospray ionization (ESI) interface between HPLC and MS.

mice [3] = system: mice; design: method as in PMID 25443727, PMID 25560569; conditions: writhing syndrome test in mice; cited from earlier work
mice [4] = system: mice; design: method as in PMID 25443727, PMID 25560569; conditions: formalin test in mice; cited from earlier work

Structure (SMILES)	maximum radical scavenging percentage observed [1] [%]	half-life at 20 μM ([2]; read-out: in vitro half-time (t1/2)) [min]	microsomal CLint at 20 μM ([2]; read-out: intrinsic clearance (Clint)) [µL/min/mg]	fold higher activity than acetylsalicylic acid (mice [3]) [fold]	fold higher activity than acetylsalicylic acid (mice [4]) [fold]
COc1nc2c(c(=O)n(C)c(=O)n2C)n1CCCC(=O)NCc1ccccc1 [Compound 3, N-benzyl-4-(8-methoxy-1,3-dimethyl-2,6-dioxo-purin-7-yl)butanamide]	6.56	17.7	97.9	–	–
COc1nc2c(c(=O)n(C)c(=O)n2C)n1CCCC(=O)N1CCN(c2ccccc2)CC1 [Compound 4, 8-methoxy-1,3-dimethyl-7-[4-oxo-4-(4-phenylpiperazin-1-yl)butyl]purine-2,6-dione]	–	–	–	23	36
